Experimental data from patent publication EP4800036A1, “ANTIBODY OR TROP2 ANTIGEN BINDING FRAGMENT BINDING TO TROP2, ANTI-TROP2 CAR, AND USE” (priority 2023, dated 2025).

How the values were obtained:
advanced NSCLC = conditions: patients with advanced NSCLC; cited from earlier work
small cell lung cancer = conditions: 50 patients with small cell lung cancer; cited from earlier work
[1] = test system: triple-negative breast cancer; conditions: third-line treatment; cited from earlier work
NSCLC = conditions: 44 patients with NSCLC; cited from earlier work
[2] = biological target: T1, Human TROP-2/TACSTD2 Protein, His Tag (ACRO, catalog No. TR2-H5223) (human, UniProt P09758 27-274); experiment: phage ELISA, Trop2-His coated at 1 µg/mL, anti-M13-HRP detection
T1 construct: extracellular domain; Bought protein; also called Trop2-His; Trop2-His antigen; not shown: His tag
T1 sequence (looked up): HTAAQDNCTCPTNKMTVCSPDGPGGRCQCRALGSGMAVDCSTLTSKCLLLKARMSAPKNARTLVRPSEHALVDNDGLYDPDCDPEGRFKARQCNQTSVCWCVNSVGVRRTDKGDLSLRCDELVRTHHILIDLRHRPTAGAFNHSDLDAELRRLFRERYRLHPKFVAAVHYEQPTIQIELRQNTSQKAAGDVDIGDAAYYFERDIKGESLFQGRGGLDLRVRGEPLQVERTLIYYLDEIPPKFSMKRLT

In the case of Sacituzumab govitecan [IMMU-132], the overall survival (advanced NSCLC) is given as 9.5 months, the ORR (small cell lung cancer) is given as 14% and the PFS (small cell lung cancer) is given as 3.7 months. The “clinical benefit rate (complete response + partial response + stable disease ≥ 4 months)” value (small cell lung cancer) was 34%, the disease control rate [1] was 45% and the “patients who experienced tumor shrinkage at least once” value [1] was 74%. For the same molecule, the “progression-free survival (PFS) rate” value [1] was 33.3%, the PFS (NSCLC) was 5.2 months and the “clinical benefit rate (complete response + partial response + stable disease ≥ 4 months)” value (NSCLC) was 43%. For the same molecule, the “objective response rate (ORR)” value (NSCLC) was 19%.

B1: anti-Trop2 positive clone 3 (T3), phage scFv (scFv)
scFv: DIQMTQSPSTLSASVGDRVTITCRASQSISSWLAWYQQKPGKAPKLLIYKASSLESGVPPRFSGSGSGAEFTLTISSLQPDDFATYYCQQYNSYPLTFGGGTKVEVKGGGGSGGGGSGGGGSEVQLVQSGGGLVQPGGSLRLSCEDSGFTFSSYWMSWVRQAPGKGLEWVSSISSSSSYIYYADSVKGRFTISRDNAKNSLYLQMNSLRGEDTAVYYCAREQSSSGFDYWGQGTLVTVSS
notes: also called T3 clone; T3 anti-Trop2 scFv
B1: binds [2].
